# Test results from patent US20170226059A1, “APOE4-TARGETED THERAPUTICS THAT INCREASE SIRT1” (The Regents of the University of California, priority 2014, published 2017).
# “Also recorded” adds a separate entry of the source. Where two headings read alike, the source gives them in different places.
# Assays:
# SirT1 = assay: Primary AlphaLISA screening assay: SirT1 levels in N2a cells stably transfected with ApoE4; type: cell-based, mouse; details: for SirT1 levels (dose-response): N2A neuroblastoma cells stably transfected with ApoE4
# Protocol: We have developed a primary screening assay that is HTS formatable; the assay would be done on N2a cells (mouse neuroblastoma cells) that have been stably transfected with ApoE3 and ApoE4. The cells are treated with drugs and the SirT1 levels are measured using the AlphaLISA assay that we have developed, e.g., as shown in FIG. 11. The illustrated AlphaLISA uses an antibody (Ab, E104, Abcam) that binds the C-terminus of SirT1 and is on the acceptor bead. The N-terminal Ab (D1D7, Abcam) is biotinylated and binds to the donor bead. For the primary assay the Neuro-2a (N2a) cells stably expressing similar levels of hApoE3 or hApoE4 are used. The primary assay can be done in triplicate. The N2a cells have reasonably good endogenous levels of APP thus avoiding the necessity of APP transfection. In general, for the assays N2a cells stably transfected with hApoE3 (E3) or hApoE4 (E4) are plated, e.g., at […] in 384-well plates in […] of growth medium and allowed to attached for 3 h. The E4 cells are treated with compounds overnight, E3 cells are controls. The following day, growth medium is removed and cells are lysed with AlphaLysis buffer complemented with protease and phosphatase inhibitors.
# Then, the AlphaLISA assay is run and molecules that can increase or reverse the SirT1 levels in ApoE4 cells are identified. A preliminary estimate, based on the initial screening which yielded two reproducible “hits” from a set of 1000 compounds, which is a 0.2% hit-rate. […] Our initial screening was done on a small library of about 1000 compounds. The assay is translatable to a HTS format.
# SirT1 mRNA = SirT1 mRNA levels in A172 cells transfected with ApoE4 (quantitative real-time PCR); type: cell-based, human; details: A03 at 2 μM
# Protocol: Total RNA from transfected and drug-treated cells is isolated using the High Pure RNA isolation kit (Roche) and 1 μg of RNA is reverse-transcribed. To analyze the mRNA levels of SirT1, real time PCR can be performed on first-strand cDNAs as described (Theendakara et al. (2013) Proc. Natl. Acad. Sci. USA, 10(45): 18303-18308). The real-time PCR can be performed in Light Cycler 480-384-multiwell plates (Roche). Primers for SirT1 were designed using the Roche universal probe library system and the primers were synthesized by Integrated DNA Technology. Real-time PCR can be performed in SYBR Green master mix with the corresponding primer sets. The melting curves of PCR products are monitored to ensure that a single melting curve is obtained. For analysis of the real-time PCR data, δCt values of samples are normalized to values obtained for GAPDH, which is assayed simultaneously. Relative quantification using the DeltaDelta Ct method can be adopted to calculate the relative quantity of SirT1 levels.
# ADAM10 mRNA = ADAM10 mRNA levels / transcription in A172 cells transfected with ApoE4; type: cell-based, human; details: A03 at 2 uM
# [1] = Brain penetration after subcutaneous injection in mice; type: in vivo
# Protocol: Pharmacokinetic (PK) analysis for CNS exposure studies can consist of a time course design to collect heparinized plasma and brains (Korfmacher et al. (2001) Rapid Commun. Mass. Spectrom. 15(5): 335-340; Mei et al. (2006) AAPS J. 8(3): E493-500; Spilman et al. (2014) Brain Res. 1551: 25-44). Five non-transgenic mice can be used for the PK studies, and 1, 2, 4, 6, and 8 hour time points taken. Following oral, and either sc or ip administration of the molecules at 10 mg/kg, plasma and brain levels of the compounds can be determined by quantitative LC/MS/MS methodology. Plasma samples can be precipitated with acetonitrile:methanol (1:1) cocktail containing an internal standard. The brain samples can be homogenized directly in ethylacetate or extracted from 5M guanidine homogenates with liquid-liquid method. The resulting supernatant can be evaporated to dryness and subjected to the LC/MS/MS analysis. For each compound 3 mice can be used for this analysis. The brain-to-plasma ratios and brain levels can then be calculated to identify the best candidate(s) for further efficacy testing.
# sAPPα = sAPPα levels in the presence of ApoE4 (AlphaLISA); type: cell-based; details: in the presence of ApoE4 (ApoE4-transfected cells); listed as Alaproclate
# Protocol: sAPPα or sAPPβ secreted into the cellular media are determined with sAPPα or sAPPβ AlphaLISA immunoassay kits (PerkinElmer) according to the manufacturer's protocol with some modifications. The standards, blanks, and media are diluted with the buffer provided in the kit and added to the plate. During the first incubation step, the analyte is captured either by an antibody recognizing the α-secretase cleavage site at sAPPα C-terminus (clone 2B3) or the sAPPβ C-terminus, and then by a second biotin-labeled antibody specific to the N-terminal common domain of sAPP. In the second incubation step, the biotinylated anti-analyte antibody is bound to the streptavidin-coated donor beads. At the end of this reaction, the plates are read on an EnSpire Alpha 2390 multilabel plate reader equipped with the AlphaScreen module. The Aβ1-42 or 1-40 are determined from media and/or cells using Life Science's sandwich ELISA kit. The levels of Aβ are quantified from a standard curve and normalized to total cellular protein (Spilman et al. (2014) Brain Res. 1551: 25-44; Theendakara et al. (2013) Proc. Natl. Acad. Sci. USA, 10(45): 18303-18308), Tau and p-tau are determined from cell extracts by a solid phase double antibody sandwich ELISA technology designed for quantitative determination of phospho-tau (Antibodies-Online). APP and p-APP are determined by the DuoSet IC ELISA (R&D Systems) to measure phosphorylated APP in cell lysates. An immobilized capture antibody specific for APP binds both phosphorylated and unphosphorylated APP. After unbound material is washed away, a biotinylated detection antibody is used to detect either APP or phosphor-APP utilizing a standard HRP format. Using these assay procedures we notice a significant increase in p-tau and p-APP levels in ApoE4-transfected cells. It can be determined whether the primary “hits” reverse the ApoE4-mediated APP-Thr phosphorylation and tau-phosphorylation.
# p-tau = assay: p-Tau levels in SHSY5Y; type: cell-based
# Protocol: sAPPα or sAPPβ secreted into the cellular media are determined with sAPPα or sAPPβ AlphaLISA immunoassay kits (PerkinElmer) according to the manufacturer's protocol with some modifications. The standards, blanks, and media are diluted with the buffer provided in the kit and added to the plate. During the first incubation step, the analyte is captured either by an antibody recognizing the α-secretase cleavage site at sAPPα C-terminus (clone 2B3) or the sAPPβ C-terminus, and then by a second biotin-labeled antibody specific to the N-terminal common domain of sAPP. In the second incubation step, the biotinylated anti-analyte antibody is bound to the streptavidin-coated donor beads. At the end of this reaction, the plates are read on an EnSpire Alpha 2390 multilabel plate reader equipped with the AlphaScreen module. The Aβ1-42 or 1-40 are determined from media and/or cells using Life Science's sandwich ELISA kit. The levels of Aβ are quantified from a standard curve and normalized to total cellular protein (Spilman et al. (2014) Brain Res. 1551: 25-44; Theendakara et al. (2013) Proc. Natl. Acad. Sci. USA, 10(45): 18303-18308), Tau and p-tau are determined from cell extracts by a solid phase double antibody sandwich ELISA technology designed for quantitative determination of phospho-tau (Antibodies-Online). […]
# [2] = rodents, high doses; cited from earlier work
# [3] = Phase1 human trials, up to 200 mgs bid; cited from earlier work
structure (smiles),measurement,setting,value
"CC(N)C(=O)OC(C)(C)Cc1ccc(Cl)cc1 (centres unmarked) [Compound A03, 1-(4-chlorophenyl)-2-methylpropan-2-yl 2-aminopropanoate]",EC20 for SirT1 enhancement,SirT1; N2A cells stably transfected with ApoE4,0.2 µM
same,EC50,"SirT1; N2A cells stably transfected with ApoE4, read-out: EC50 for SirT1 enhancement",~2 µM
same,SirT1 levels (dose-response),SirT1,generated a SirT1 dose-response; also recorded: SirT1 levels increasing with dose
same,SirT1 levels (dose-response),SirT1; listed as Alaproclate,increases
same,SirT1 levels (dose-response),SirT1; listed as alaproclate,increase SirT1 levels in a dose responsive manner
same,mRNA levels of SirT1,SirT1 mRNA,normalized; also recorded: normalize the mRNA levels for SirT1
same,mRNA levels of SirT1,SirT1 mRNA; listed as Alaproclate,increased
same,ADAM10 mRNA levels / transcription,ADAM10 mRNA,normalized; also recorded: normalization of ADAM10 transcription
same,ADAM10 mRNA levels / transcription,ADAM10 mRNA; listed as Alaproclate,increased
same,brain penetration / brain permeability,[1],excellent brain penetration
same,brain penetration / brain permeability,[1]; listed as alaproclate,highly brain permeable
same,Kp,"[1]; mouse, brain and plasma, sc, 10 mg/kg, read-out: brain/plasma (B/P)",~10
same,sAPPα levels,sAPPα,increases
same,p-Tau levels,p-tau,decreased
same,liver toxicity,[2],observed liver toxicity
same,adverse events,[3],no observed adverse events
same,global scores,[3],some improvements in global scores
